Patent US9840509B2, “Heterocyclic compounds” (CADILA HEALTHCARE LIMITED, priority 2014, dated 2017)

Columns and labels:
CYP 2C8 = target: T1, CYP 2C8 (Homo sapiens, UniProt P10632); assay: CYP inhibition in human liver microsomes, 2C8; type: in vitro ADME; conditions: pH 7.4, @ 10 μM concn
T1 construct: from tissue; host or cells: human liver microsomes
T1 sequence (P10632 1-490): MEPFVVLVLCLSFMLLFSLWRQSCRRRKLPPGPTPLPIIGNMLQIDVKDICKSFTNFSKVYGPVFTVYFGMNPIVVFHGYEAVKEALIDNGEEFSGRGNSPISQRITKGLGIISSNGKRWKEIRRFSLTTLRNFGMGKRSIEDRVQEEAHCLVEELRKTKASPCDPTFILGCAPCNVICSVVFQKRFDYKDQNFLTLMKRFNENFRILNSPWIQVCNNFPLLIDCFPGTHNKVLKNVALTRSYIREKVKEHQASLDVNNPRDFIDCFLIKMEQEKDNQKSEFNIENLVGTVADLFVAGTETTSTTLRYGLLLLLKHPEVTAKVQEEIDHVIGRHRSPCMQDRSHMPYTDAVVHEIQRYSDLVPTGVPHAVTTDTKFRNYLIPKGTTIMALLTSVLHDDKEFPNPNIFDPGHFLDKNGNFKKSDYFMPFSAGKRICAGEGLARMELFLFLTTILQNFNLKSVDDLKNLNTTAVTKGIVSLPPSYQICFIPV
Experimental: (§1) CYP Inhibition Studies: CYP inhibition studies were performed with test compounds, at two concentrations ([…] and 10 μM), using human liver microsomes (Yao, M., Zhu, M., Sinz, M. W., Zhang, H., Humphreys, W. F., Rodrigues, A. D and Dai, R., Journal of Pharmaceutical and Biomedical Analysis, 2007, 44, 211-223; Walsky, R. L and Obach, R. S., Drug Metab. Dispos., 2004, 32, 647-660). Human liver microsomes were mixed with 100 mM phosphate buffer (pH 7.4) and probe substrate and warmed to […] in microcentrifuge tubes. Aliquots of this mixture (499 μL) were transferred to each pre-labeled microcentrifuge tubes, followed by addition of the 1 μL of inhibitors (test compound/CYP-specific positive control inhibitor) or control solvent (DMSO). Aliquots of this mixture (90 μL) were transferred to each pre-labeled microcentrifuge tubes in duplicate. Final solvent concentrations were 0.2% (v/v) or less. Incubations were commenced with the addition of 10 μL NADPH stock (assay concentration, 1 mM) to a final incubation volume of 100 μL and incubated in shaking water bath (at 37° C. and 100 rpm), for the period defined in Tables 1. Incubations were terminated by addition of 400 μL of termination solvent (CH3CN) containing internal standard. The terminated samples were vortex-mixed, centrifuged at 10000 rpm for 5 min and supernatant transferred into HPLC vials for LC-MS/MS analysis to monitor metabolites produced by marker CYP reactions. […] Animals

CYP 2D6 = target: T2, CYP 2D6 (Homo sapiens, UniProt P10635); assay: CYP inhibition in human liver microsomes, 2D6; type: in vitro ADME; conditions: pH 7.4, @ 10 μM concn
T2 construct: from tissue; host or cells: human liver microsomes
T2 sequence (P10635 whole entry): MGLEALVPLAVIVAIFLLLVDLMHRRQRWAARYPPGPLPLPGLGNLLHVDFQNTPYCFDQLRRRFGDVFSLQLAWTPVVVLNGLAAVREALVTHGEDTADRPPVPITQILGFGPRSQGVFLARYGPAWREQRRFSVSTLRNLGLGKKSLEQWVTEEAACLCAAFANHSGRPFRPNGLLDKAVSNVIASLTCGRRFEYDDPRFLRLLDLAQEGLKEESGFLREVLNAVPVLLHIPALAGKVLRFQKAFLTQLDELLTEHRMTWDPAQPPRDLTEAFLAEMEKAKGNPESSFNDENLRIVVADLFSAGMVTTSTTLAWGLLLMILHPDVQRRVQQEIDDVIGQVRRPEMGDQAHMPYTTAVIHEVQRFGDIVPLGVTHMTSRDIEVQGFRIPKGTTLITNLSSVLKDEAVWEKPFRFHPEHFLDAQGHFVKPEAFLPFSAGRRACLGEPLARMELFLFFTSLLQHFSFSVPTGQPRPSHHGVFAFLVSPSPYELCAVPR
Experimental: as §1

CYP 2C9 = target: T3, CYP 2C9 (Homo sapiens, UniProt P11712); assay: CYP inhibition in human liver microsomes, 2C9; type: in vitro ADME; conditions: pH 7.4, @ 10 μM concn
T3 construct: from tissue; host or cells: human liver microsomes
T3 sequence (P11712 whole entry): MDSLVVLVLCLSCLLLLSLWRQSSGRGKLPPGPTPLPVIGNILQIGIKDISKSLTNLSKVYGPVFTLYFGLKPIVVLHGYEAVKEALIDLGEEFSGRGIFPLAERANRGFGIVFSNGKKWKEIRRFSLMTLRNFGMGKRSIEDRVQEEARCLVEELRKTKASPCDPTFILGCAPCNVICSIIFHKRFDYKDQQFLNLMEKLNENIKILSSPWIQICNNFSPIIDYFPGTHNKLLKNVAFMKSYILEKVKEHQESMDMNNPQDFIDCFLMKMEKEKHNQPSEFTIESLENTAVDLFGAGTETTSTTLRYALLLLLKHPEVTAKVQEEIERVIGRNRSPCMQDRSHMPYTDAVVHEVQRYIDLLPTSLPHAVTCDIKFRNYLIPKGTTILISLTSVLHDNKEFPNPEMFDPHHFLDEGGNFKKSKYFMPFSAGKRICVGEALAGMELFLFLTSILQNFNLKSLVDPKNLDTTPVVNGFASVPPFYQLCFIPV
Experimental: as §1

CYP 3A4 = target: T4, CYP 3A4 (Homo sapiens, UniProt P08684); assay: CYP inhibition in human liver microsomes, 3A4; type: in vitro ADME; conditions: pH 7.4, @ 10 μM concn
T4 construct: from tissue; host or cells: human liver microsomes
T4 sequence (P08684 whole entry): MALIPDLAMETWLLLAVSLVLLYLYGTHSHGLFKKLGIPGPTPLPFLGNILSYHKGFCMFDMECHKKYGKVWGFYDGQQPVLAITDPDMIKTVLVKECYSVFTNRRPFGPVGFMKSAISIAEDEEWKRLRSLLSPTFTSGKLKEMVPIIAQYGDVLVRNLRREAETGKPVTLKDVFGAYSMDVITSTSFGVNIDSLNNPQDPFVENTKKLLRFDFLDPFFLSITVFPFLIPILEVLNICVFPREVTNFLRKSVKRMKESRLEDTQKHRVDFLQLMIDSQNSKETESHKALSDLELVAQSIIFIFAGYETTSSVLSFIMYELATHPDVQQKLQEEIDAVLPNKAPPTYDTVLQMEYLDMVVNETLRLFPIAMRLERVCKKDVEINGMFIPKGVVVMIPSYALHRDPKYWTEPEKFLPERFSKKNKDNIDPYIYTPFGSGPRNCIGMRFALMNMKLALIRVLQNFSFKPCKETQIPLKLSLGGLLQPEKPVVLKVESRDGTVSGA
Experimental: as §1

CYP 1A2 = target: T5, CYP 1A2 (Homo sapiens, UniProt P05177); assay: CYP inhibition in human liver microsomes, 1A2; type: in vitro ADME; conditions: pH 7.4, @ 10 μM concn
T5 construct: from tissue; host or cells: human liver microsomes
T5 sequence (P05177 1-516): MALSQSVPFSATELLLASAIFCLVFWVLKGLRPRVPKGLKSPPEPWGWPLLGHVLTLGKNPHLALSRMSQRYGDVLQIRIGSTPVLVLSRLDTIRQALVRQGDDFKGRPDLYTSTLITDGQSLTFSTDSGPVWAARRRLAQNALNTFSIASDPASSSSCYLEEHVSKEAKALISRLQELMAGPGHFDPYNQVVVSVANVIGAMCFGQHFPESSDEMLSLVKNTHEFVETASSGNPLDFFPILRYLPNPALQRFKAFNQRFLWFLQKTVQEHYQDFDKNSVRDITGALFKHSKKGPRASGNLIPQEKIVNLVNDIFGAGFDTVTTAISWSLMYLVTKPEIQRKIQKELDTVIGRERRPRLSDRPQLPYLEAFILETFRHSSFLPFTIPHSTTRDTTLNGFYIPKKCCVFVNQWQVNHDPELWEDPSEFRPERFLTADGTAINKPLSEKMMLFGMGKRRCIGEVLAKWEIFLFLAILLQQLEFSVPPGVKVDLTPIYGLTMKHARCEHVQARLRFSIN
Experimental: as §1

[1] = target: T6, recombinant purified human BTK (Homo sapiens, UniProt Q06187); assay: In vitro BTK kinase assay on ADP Glo platform; type: biochemical; conditions: 2 hr room temperature, read-out: In-vitro BTK inhibitory activity: IC50
T6 construct: purchased SignalChem, USA
T6 sequence (Q06187 whole entry): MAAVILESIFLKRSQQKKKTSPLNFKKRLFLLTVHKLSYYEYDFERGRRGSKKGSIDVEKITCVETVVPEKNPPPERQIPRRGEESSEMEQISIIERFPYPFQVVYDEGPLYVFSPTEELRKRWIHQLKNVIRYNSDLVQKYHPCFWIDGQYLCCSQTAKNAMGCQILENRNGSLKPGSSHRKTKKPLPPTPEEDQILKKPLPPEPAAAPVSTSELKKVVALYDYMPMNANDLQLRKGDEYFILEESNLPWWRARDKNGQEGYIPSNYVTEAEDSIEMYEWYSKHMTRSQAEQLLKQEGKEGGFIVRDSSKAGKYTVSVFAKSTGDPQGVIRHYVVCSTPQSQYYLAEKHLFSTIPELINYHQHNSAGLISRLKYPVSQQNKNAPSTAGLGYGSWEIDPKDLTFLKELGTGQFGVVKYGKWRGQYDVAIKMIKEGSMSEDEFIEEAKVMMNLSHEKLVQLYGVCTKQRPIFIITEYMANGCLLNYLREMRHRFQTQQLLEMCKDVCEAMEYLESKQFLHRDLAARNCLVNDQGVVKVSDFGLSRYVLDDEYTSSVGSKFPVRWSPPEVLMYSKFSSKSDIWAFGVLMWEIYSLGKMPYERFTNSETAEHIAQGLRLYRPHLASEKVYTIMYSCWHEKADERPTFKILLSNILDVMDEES
Experimental: Testing of Compounds of the Invention Biological Studies: In vitro BTK Inhibitory Activity Assay:
In vitro BTK inhibitory activity of test compounds were screened using BTK kinase assay on ADP Glo platform (Li, H., Totoritis, R. D., Lor, L. A., Schwartz, B., Caprioli, P., Jurewicz, A. J and Zhang, G., Assay Drug Dev. Technol., 2009, 7(6), 598-605). Briefly, fixed amount of recombinant purified human BTK (3 ng/reaction from SignalChem, USA) were incubated with increasing concentration of test compounds, in 1× kinase reaction buffer (40 mM Tris-Cl, pH7.5, 20 mM MgCl2, 2 mM MnCl2, 0.1 mg/ml BSA and 50 μM DTT). Enzymatic reaction was initiated by adding a substrate cocktail containing 50 µM of ATP (final concentration) and […] of polyGln4Tyr1 (Signal Chem) in total 25 μl of reaction, in round bottom white 96 well plate. The reaction mixture was incubated at room temperature for 2 hr. After 2 hr of incubation, 10 μl of the reaction mix was mixed with […] of ADP Glo reagent, in another round bottom white 96 well plate and incubated at room temperature for 40 min. This was followed by addition of kinase detection reagent (20 μl per reaction) and incubation at room temperature for 30 min. Finally, plate was read for luminescence at an integration time of 500 millisecond per well. Data were plotted taking Enzyme with no inhibitor set as the 100% kinase activity and for dose response curve, % Kinase activity was plotted against conc on Log scale and IC50 was determined by non linear curve fitting method using GraphPad Prism software 6. The in vitro BTK inhibitory activity (IC50) for representative compounds are listed in […]

CYP 2C19 = target: T7, CYP 2C19 (Homo sapiens, UniProt P33261); assay: CYP inhibition in human liver microsomes, 2C19; type: in vitro ADME; conditions: pH 7.4, @ 10 μM concn
T7 construct: from tissue; host or cells: human liver microsomes
T7 sequence (P33261 whole entry): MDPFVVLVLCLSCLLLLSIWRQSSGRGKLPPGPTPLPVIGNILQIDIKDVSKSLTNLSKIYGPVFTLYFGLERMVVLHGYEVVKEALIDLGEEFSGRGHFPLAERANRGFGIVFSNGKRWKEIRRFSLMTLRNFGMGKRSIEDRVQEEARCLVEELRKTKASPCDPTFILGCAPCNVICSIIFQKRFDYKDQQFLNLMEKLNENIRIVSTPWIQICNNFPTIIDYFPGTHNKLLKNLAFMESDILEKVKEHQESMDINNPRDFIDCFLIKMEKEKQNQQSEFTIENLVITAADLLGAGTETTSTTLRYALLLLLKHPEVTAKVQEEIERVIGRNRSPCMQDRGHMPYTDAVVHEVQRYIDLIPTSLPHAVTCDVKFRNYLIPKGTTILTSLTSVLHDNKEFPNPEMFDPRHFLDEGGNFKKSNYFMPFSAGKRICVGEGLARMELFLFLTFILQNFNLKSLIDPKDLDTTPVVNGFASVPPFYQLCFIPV
Experimental: as §1

SMILES | inhibition at 10 μM (CYP 2C8) | inhibition at 10 μM (CYP 2D6) | inhibition at 10 μM (CYP 2C9) | inhibition at 10 μM (CYP 3A4) | inhibition at 10 μM (CYP 1A2) | IC50 [1] | inhibition at 10 μM (CYP 2C19)
C#CC(=O)N1CC2CC(n3nc(-c4ccc(Oc5ccccc5)cc4)c4c(N)ncnc43)CC2C1 (stereo not shown) [Compound 11, 1-(5-(4-amino-3-(4-phenoxyphenyl)-1H-pyrazolo[3,4-d]pyrimidin-1-yl)hexahydrocyclopenta[c]pyrrol-2(1H)-yl)prop-2-yn-1-one] | < 50% | < 50% | < 50% | < 50% | < 50% | 13 nM | < 50%
C=CC(=O)N1CC2CC(n3nc(-c4ccc5nc(C)sc5c4)c4c(N)ncnc43)CC2C1 (stereo not shown) [Compound 5, 1-(5-(4-amino-3-(2-methylbenzo[d]thiazol-6-yl)-1H-pyrazolo[3,4-d]pyrimidin-1-yl)hexahydrocyclopenta[c]pyrrol-2(1H)-yl)prop-2-en-1-one] | < 50% | < 50% | < 50% | > 50% | < 50% | 8 nM | < 50%
C=CS(=O)(=O)N1CC2CC(n3nc(-c4ccc(Oc5ccccc5)cc4)c4c(N)ncnc43)CC2C1 (stereo not shown) [Compound 18, 3-(4-phenoxyphenyl)-1-(2-(vinylsulfonyl)octahydrocyclopenta[c]pyrrol-5-yl)-1H-pyrazolo[3,4-d]pyrimidin-4-amine] | > 50% | < 50% | > 50% | > 50% | < 50% | 218 nM | < 50%
C=CC(=O)N1CC2CC(n3nc(-c4ccc(C(=O)Nc5nc6ccccc6s5)cc4)c4c(N)ncnc43)CC2C1 (stereo not shown) [Compound 34, 4-(1-(2-acryloyloctahydrocyclopenta[c]pyrrol-5-yl)-4-amino-1H-pyrazolo[3,4-d]pyrimidin-3-yl)-N-(benzo[d]thiazol-2-yl)benzamide] | < 50% | < 50% | < 50% | > 50% | > 50% | 359 nM | > 50%
C=CC(=O)N1CC2CC(n3nc(-c4ccc5oc(-c6ccccc6)nc5c4)c4c(N)ncnc43)CC2C1 (stereo not shown) [Compound 23, 1-(5-(4-amino-3-(2-phenylbenzo[d]oxazol-5-yl)-1H-pyrazolo[3,4-d]pyrimidin-1-yl)hexahydrocyclopenta[c]pyrrol-2(1H)-yl)prop-2-en-1-one] | > 50% | < 50% | > 50% | > 50% | < 50% | 48 nM | < 50%

Next, values leading:

inhibition at 10 μM (CYP 2C8) | inhibition at 10 μM (CYP 2D6) | inhibition at 10 μM (CYP 2C9) | inhibition at 10 μM (CYP 3A4) | inhibition at 10 μM (CYP 1A2) | IC50 [1] | inhibition at 10 μM (CYP 2C19) | SMILES
> 50% | < 50% | > 50% | > 50% | > 50% | 50 nM | < 50% | CN(C)C/C=C/C(=O)N1CC2CC(n3nc(-c4ccc(-c5nnc(-c6cnccn6)s5)cc4)c4c(N)ncnc43)CC2C1 (stereo not shown) [Compound 56, (E)-1-(5-(4-amino-3-(4-(5-(pyrazin-2-yl)-1,3,4-thiadiazol-2-yl)phenyl)-1H-pyrazolo[3,4-d]pyrimidin-1-yl)hexahydrocyclopenta[c]pyrrol-2(1H)-yl)-4-(dimethylamino)but-2-en-1-one]
> 50% | < 50% | > 50% | > 50% | < 50% | 100 nM | < 50% | CN(C)C/C=C/C(=O)N1CC2CC(n3nc(-c4ccc(-c5nnc(-c6ccccn6)o5)cc4)c4c(N)ncnc43)CC2C1 (stereo not shown) [Compound 57, (E)-1-(5-(4-amino-3-(4-(5-(pyridin-2-yl)-1,3,4-oxadiazol-2-yl)phenyl)-1H-pyrazolo[3,4-d]pyrimidin-1-yl)hexahydrocyclopenta[c]pyrrol-2(1H)-yl)-4-(dimethylamino)but-2-en-1-one]
< 50% | < 50% | < 50% | > 50% | > 50% | 162 nM | > 50% | C=CC(=O)N1CC2CC(n3nc(-c4ccc(Oc5cccnc5)cc4)c4c(N)ncnc43)CC2C1 (stereo not shown) [Compound 52, 1-(5-(4-amino-3-(4-(pyridin-3-yloxy)phenyl)-1H-pyrazolo[3,4-d]pyrimidin-1-yl)hexahydrocyclopenta[c]pyrrol-2(1H)-yl)prop-2-en-1-one]
< 50% | < 50% | < 50% | < 50% | < 50% | 1.4 nM | < 50% | CN(C)C/C=C/C(=O)N1CC2CC(n3nc(-c4ccc(C(=O)Nc5ccccn5)cc4)c4c(N)ncnc43)CC2C1 (stereo not shown) [Compound 44, (E)-4-(4-amino-1-(2-(4-(dimethylamino)but-2-enoyl)octahydrocyclopenta [c]pyrrol-5-yl)-1H-pyrazolo[3,4-d]pyrimidin-3-yl)-N-(pyridin-2-yl) benzamide]
> 50% | < 50% | > 50% | > 50% | < 50% | 80 nM | > 50% | Cc1ccnc(N(C)C(=O)c2ccc(-c3nn(C4CC5CN(C(=O)/C=C/CN(C)C)CC5C4)c4ncnc(N)c34)cc2)c1 (stereo not shown) [Compound 55, (E)-4-(4-amino-1-(2-(4-(dimethylamino)but-2-enoyl)octahydrocyclopenta [c]pyrrol-5-yl)-1H-pyrazolo[3,4-d]pyrimidin-3-yl)-N-methyl-N-(4-methylpyridin-2-yl)benzamide]
